In ChEMBL document CHEMBL1122256, “Novel tetracyclic spiropiperidines. 3. 1-arylspiro[indoline-3,4'-piperidine]s as potential antidepressants” (J Med Chem, 1983):

Assays:
Rattus norvegicus [1] = assay: In vivo antidepressant activity against muricide in rat after intraperitoneal administration; assay type: functional; conditions: ip
Rattus norvegicus [2] = assay: In vivo antidepressant activity measured by potentiation of head twitching induced by 5-HTP in pargyline-pretreated rats after intraperitoneal administration; assay type: functional; conditions: ip
Rattus norvegicus [3] = organism: Rattus norvegicus; assay: In vitro inhibition of neuronal uptake against dopamine in rat striatum; assay type: functional
Rattus norvegicus [4] = organism: Rattus norvegicus; assay: In vitro inhibition of neuronal uptake against serotonin in rat whole brain; assay type: functional
Mus musculus [5] = assay: In vivo antidepressant activity measured by yohimbine toxicity potentiation in mouse after intraperitoneal administration; assay type: functional; conditions: ip
Rattus norvegicus [6] = organism: Rattus norvegicus; assay: In vitro inhibition of neuronal uptake against norepinephrine in rat whole brain; assay type: functional
Mus musculus [7] = assay: Antidepressant activity by tetrabenazine ptosis prevention in mouse after oral administration; assay type: functional
[8] = system: Monoamine oxidase (Rattus norvegicus); assay: In vitro inhibition of MAO against mitochondrial preparation in rat whole brain
Mus musculus [9] = assay: In vivo antidepressant activity by tetrabenazine ptosis prevention in mouse after intraperitoneal administration; conditions: ip
Mus musculus [10] = assay: Antidepressant activity by tetrabenazine ptosis prevention in mice after intraperitoneal administration; d = All animals died after tetrabenazine dosing; assay type: functional, organism-based
Rattus norvegicus [11] = assay: Potentiation of head twitching induced by 5-HTP in pargyline-pretreated rats following i.p. administration.; assay type: functional; conditions: ip
Mus musculus [12] = assay: Inhibition of tetrabenazine ptosis in mice following i.p. administration.; assay type: functional; conditions: ip
Mus musculus [13] = assay: Antidepressant activity by tetrabenazine ptosis prevention in mice after peroral administration; assay type: functional; conditions: po
Mus musculus [14] = assay: Antidepressant activity by tetrabenazine ptosis prevention in mice after intraperitoneal administration; conditions: ip
Mus musculus [15] = assay: In vivo antidepressant activity by tetrabenazine ptosis prevention in mice after intraperitoneal administration; assay type: functional; conditions: ip
Mus musculus [16] = assay: In vivo antidepressant activity by tetrabenazine ptosis prevention in mice after oral administration; assay type: functional
Mus musculus [17] = assay: Antidepressant activity by tetrabenazine ptosis prevention in mice after oral administration; assay type: functional
Rattus norvegicus [18] = assay: Antidepressant activity measured by potentiation of head twitching induced by 5-HTP in pargyline-pretreated rats after intraperitoneal administered; assay type: functional; conditions: ip
Mus musculus [19] = assay: Antidepressant activity by tetrabenazine ptosis prevention in mice after oral administration

| SMILES | ED50 (Rattus norvegicus [11]) | ED50 (Mus musculus [12]) | also measured |
| --- | --- | --- | --- |
| Clc1ccccc1N1CC2(CCNCC2)c2ccccc21.O=C(O)/C=C\C(=O)O | – | – | ED50 (Rattus norvegicus [1]): 4.9 mg/kg; ED50 (Rattus norvegicus [2]): 4.7 mg/kg; IC50 (Rattus norvegicus [3]): 8 µM; IC50 (Rattus norvegicus [4]): 1.7 µM; ED50 (Mus musculus [5]): 1.6 mg/kg; IC50 (Rattus norvegicus [6]): 6.5 µM; ED50 (Mus musculus [7]): 0.37 mg/kg; IC50 [8]: 160 µM; ED50 (Mus musculus [9]): 1.2 mg/kg |
| Cl.O=[N+]([O-])c1ccccc1N1CC2(CCNCC2)c2ccccc21 | > 10 mg/kg | – | ED50 (Mus musculus [10]): All animals died |
| Cl.Cl.Nc1ccccc1N1CC2(CCNCC2)c2ccc(Cl)cc21 | > 10 mg/kg | > 20 mg/kg | – |
| CN1CCC2(CC1)CN(c1ccccc1[N+](=O)[O-])c1ccccc12 | > 10 mg/kg | – | ED50 (Mus musculus [13]): 8.4 mg/kg; ED50 (Mus musculus [14]): 4 mg/kg |
| CN(C)CCC=C1c2ccccc2CCc2ccccc21 [AMITRIPTYLINE] | – | – | ED50 (Mus musculus [15]): 1.5 mg/kg; ED50 (Mus musculus [16]): 1.94 mg/kg; ED50 (Rattus norvegicus [1]): 22.6 mg/kg; ED50 (Rattus norvegicus [2]): 7.1 mg/kg; ED50 (Mus musculus [5]): 8 mg/kg |
| CN1CCC2(CC1)CN(c1ccc(C(F)(F)F)cc1)c1ccccc12 | 7.8 mg/kg | > 20 mg/kg | ED50 (Mus musculus [14]): > 20 mg/kg |
| CN1CCC2(CC1)CN(c1ccccc1C(F)(F)F)c1cc(Cl)ccc12.O=C(O)/C=C\C(=O)O | > 10 mg/kg | > 8 mg/kg | – |
| CN1CCC2(CC1)CN(c1ccccc1)c1ccccc12 | > 10 mg/kg | > 20 mg/kg | – |
| CN1CCC2(CC1)CN(c1cccc(C(F)(F)F)c1)c1ccccc12 | > 10 mg/kg | > 20 mg/kg | – |
| CN1CCC2(CC1)CN(c1ccccc1Cl)c1ccccc12.O=C(O)/C=C\C(=O)O | > 10 mg/kg | – | ED50 (Mus musculus [17]): 3.2 mg/kg |
| Br.CN1CCC2(CC1)CN(c1ccccn1)c1ccccc12 | > 10 mg/kg | > 20 mg/kg | – |
| CN1CCC2(CC1)CN(c1ccccc1F)c1cc(Cl)ccc12.O=C(O)/C=C\C(=O)O | > 10 mg/kg | 11 mg/kg | – |
| Br.CN1CCC2(CC1)CN(c1ccc(F)cc1)c1ccccc12 | – | > 20 mg/kg | ED50 (Rattus norvegicus [18]): > 10 mg/kg; ED50 (Mus musculus [14]): > 20 mg/kg |
| Fc1ccccc1N1CC2(CCNCC2)c2ccc(Cl)cc21.O=C(O)/C=C\C(=O)O | > 10 mg/kg | > 8 mg/kg | – |
| CNCCCN1c2ccccc2CCc2ccccc21 [DESIPRAMINE] | > 10 mg/kg | 0.8 mg/kg | ED50 (Mus musculus [19]): 1.6 mg/kg |
| CN1CCC2(CC1)CN(c1ccccc1N)c1ccccc12.Cl | > 10 mg/kg | 4 mg/kg | – |
| CN1CCC2(CC1)CN(c1ccc(Cl)cc1)c1ccccc12 | > 10 mg/kg | > 20 mg/kg | – |
| Cl.Nc1ccccc1N1CC2(CCNCC2)c2ccccc21 | > 10 mg/kg | > 20 mg/kg | – |
| CN1CCC2(CC1)CN(c1ccccc1N)c1cc(Cl)ccc12.Cl.Cl | > 10 mg/kg | > 20 mg/kg | – |
| CN1CCC2(CC1)CN(c1ccccc1Cl)c1cc(Cl)ccc12.O=C(O)/C=C\C(=O)O | > 10 mg/kg | 2.6 mg/kg | – |
| Fc1ccc(N2CC3(CCNCC3)c3ccccc32)cc1.O=C(O)/C=C\C(=O)O | > 10 mg/kg | > 20 mg/kg | ED50 (Mus musculus [14]): > 20 mg/kg |
| CN1CCC2(CC1)CN(c1ccccc1F)c1ccccc12.O=C(O)/C=C\C(=O)O | > 10 mg/kg | 15.2 mg/kg | – |
| c1ccc(C2OC3(CCNCC3)c3ccccc32)cc1 (configuration not stated) | 1.9 mg/kg | 0.5 mg/kg | ED50 (Mus musculus [19]): 1 mg/kg |
